Publication PMC4540712, “Development of a clickable bimodal fluorescent/PET probe for in vivo imaging” (EJNMMI Research, 2015)
Starred links: 1 amine or outer side, 2 acyl side, 3 side chain; linkers in the order of their positions; H or OH if unused. Non-standard residues stand in square brackets, D forms with d. Residues, ends and D or L forms follow the SMILES beside them. *: point of attachment. BODIPY(FL) = CC1=CC(C)=[N+]2C1=Cc1ccc(CCC(=O)*)n1[B-]2(F)F; X1 = O=C(CCc1cn(CCOCCOCCOCCN[*:1])nn1)[*:2]; Sta = CC(C)C[C@H](N)[C@@H](O)CC(=O)O; X2 = O=C(CN1CCC(N[*:1])CC1)[*:2]

Legend:
[1] = molecular target: T1, GRP receptor overexpressing PC-3 cells (Homo sapiens, UniProt P30550); experiment: confocal live-cell imaging of uptake and blocking in PC-3 cells; type: cell-based; details: 37 °C, 30 min
T1 construct: host or cells: PC-3 (human prostate cancer cell line)
Description: To determine BODIPY-BBN uptake in vitro, PC-3 cells (1.0 × 10^4 per well) were seeded in a two-well chamber slide (Nunc™ Lab-Tek™ II Chamber Slide™ System) containing growth media (1 mL) and incubated at 37 °C for 24 h. To study the uptake of BODIPY-BBN, PC-3 cells were incubated with 5 (10 nM in PBS, 37 °C for 30 min). At the same time blocking studies were performed. PC-3 cells were pre-incubated with RM2 (1000 nM in PBS, 37 °C for 5 min) before incubation with BODIPY-BBN (10 nM in PBS, 37 °C for 30 min). After washing with media (1.0 mL), blue whole cell stain was added and incubated at room temperature for 5 min. The cells were washed with PBS (3 × 1.0 mL), living cells were imaged using an inverted confocal microscope (Leica TCS SP5 II), and data were analyzed with Fiji.
(§1) The binding of BODIPY-BBN 5 toward GRP receptor overexpressing PC-3 cells was evaluated in confocal live-cell imaging (Fig. 4a). After incubation of BODIPY-BBN 5 (10 nM, 30 min), cells were treated with blue whole cell stain (5 min) and washed with PBS. […] We also confirmed the binding affinity of BODIPY-BBN 5 using [^125I-Tyr^4]bombesin in a competitive binding assay (Fig. 4b). […] We then determined the stability of our imaging tracer in human serum (37 °C) at pre-determined time points showing >90 % intact fluorescent imaging agent after 60 min of incubation (Additional file 1: Figure S6).

stability in human serum = type: in vitro ADME; details: 37 °C, after 60 min of incubation, time points 0, 15, 30, 45, 60 min, fluorescence read-out
Description: as §1
Figure S6: Percent intact fluorescent ^19F-BODIPY-BBN in human serum at different time points (0, 15, 30, 45, and 60 min) after incubation at 37 °C.

T1 sequence (P30550 whole entry): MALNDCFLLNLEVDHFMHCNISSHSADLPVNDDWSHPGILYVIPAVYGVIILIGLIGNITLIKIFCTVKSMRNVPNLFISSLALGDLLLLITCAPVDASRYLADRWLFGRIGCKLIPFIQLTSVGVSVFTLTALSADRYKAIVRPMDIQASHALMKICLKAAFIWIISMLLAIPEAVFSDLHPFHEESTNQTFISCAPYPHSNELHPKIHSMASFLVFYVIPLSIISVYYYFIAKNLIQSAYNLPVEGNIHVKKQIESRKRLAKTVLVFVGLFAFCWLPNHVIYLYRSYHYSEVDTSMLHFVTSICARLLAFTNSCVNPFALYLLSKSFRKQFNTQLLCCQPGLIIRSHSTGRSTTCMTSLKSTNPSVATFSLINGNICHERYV

For `Cc1cc(C)n2c1C=C1C=CC(CCC(=O)NCCOCCOCCOCCn3cc(CCC(=O)NC4CCN(CC(=O)N[C@H](Cc5ccccc5)C(=O)N[C@@H](CCC(N)=O)C(=O)N[C@@H](Cc5c[nH]c6ccccc56)C(=O)N[C@@H](C)C(=O)N[C@H](C(=O)NCC(=O)N[C@@H](Cc5c[nH]cn5)C(=O)N[C@@H](CC(C)C)[C@@H](O)CC(=O)N[C@@H](CC(C)C)C(N)=O)C(C)C)CC4)nn3)=[N+]1[B-]2(F)F` [BODIPY-BBN 5] ({BODIPY(FL)}-[X1][X2][dF]QWAVGH[Sta]L-NH2), the “fluorescent signal after blocking (GRP receptor specificity)” value ([1]; PC-3 cells pre-incubated with 100-fold excess of unlabeled GRP receptor antagonist (1000 nM, 5 min), then 10 nM probe) was “complete suppression of green fluorescent signal”, the “binding in confocal live-cell imaging” value ([1]; PC-3 cells, 10 nM in PBS, green fluorescence) was “antagonist-specific binding” and the “intact fluorescent imaging agent in human serum” value (stability in human serum) was greater than 90%.
